Experimental data taken from patent publication US9663565B2, “Insulinotropic peptide derivative with modified N-terminal charge” (HANMI PHARM. CO., LTD., priority 2013, dated 2017).

Columns and labels:
[1] = N-terminal charge at pH 7.4; format: physicochemical
[2] = test system: GLP-1 receptor (hGLP-1R/GST); assay: Binding activity with the GLP-1 receptor by surface plasmon resonance (BIACORE 3000), 1:1 Langmuir fitting; set-up: species or system human; settings: SPR, hGLP-1R/GST immobilized to CM5 chip
Source text: The expressed hGLP-1R/GST was immobilized to a CM5 chip by amine coupling. […].

Chain of GLP-1 receptor (hGLP-1R/GST) (P43220 24-139 limits assumed): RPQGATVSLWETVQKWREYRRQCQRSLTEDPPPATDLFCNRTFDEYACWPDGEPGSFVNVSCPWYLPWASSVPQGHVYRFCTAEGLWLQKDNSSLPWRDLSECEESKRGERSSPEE

| Substance | N-terminal charge at pH 7.4 [1] | Ka [2] | Kd [2] | kd [2] |
| --- | --- | --- | --- | --- |
| DA-exendin-4-propyl-amide | Neutral | 1.04 ± 0.11 1/Ms, ×10^5 | 32.6 ± 4.17 nM | 33.5 ± 1.40 1/s, ×10^4 |
| beta-hydroxy imidazopropionyl-exendin-4 [HY-exendin-4] | Neutral | 0.90 ± 0.07 1/Ms, ×10^5 | 42.7 ± 4.1 nM | 38.3 ± 1.92 1/s, ×10^4 |
| desamino-histidyl-exendin-4 [DA-exendin-4] | Neutral | 1.13 ± 0.08 1/Ms, ×10^5 | 32.2 ± 1.89 nM | 36.5 ± 1.40 1/s, ×10^4 |
| imidazoacetyl-exendin-4 [CA-exendin-4] | Neutral | 1.20 ± 0.11 1/Ms, ×10^5 | 26.3 ± 2.08 nM | 31.5 ± 0.56 1/s, ×10^4 |
